Laboratory results reported in patent publication EP3788116B1, “CHEMILUMINESCENT IMIDAZOPYRAZINONE-BASED PHOTOSENSITIZERS WITH AVAILABLE SINGLET AND TRIPLET EXCITED STATES” (Universidade do Porto, priority 2018, dated 2019).

Key:
[1] = system: HepG2 human liver cancer cell lines; assay: MTT cytotoxicity assay; type: cell-based; settings: HepG2, 24h exposure, versus control cell viability taken as 100%, read-out: toxicity
Protocol: (§1) To assess if the produced singlet oxygen can induce cytotoxicity in tumor cells, toxicity assays were performed in vitro with compound 1 in HepG2 human liver cancer cell lines. Cytotoxicity of compound 1 was evaluated through the MTT and LDH assay, which has been widely used as a colorimetric approach based on the activity of mitochondrial dehydrogenase enzyme in cells. MTT test was performed after an incubation of 24h and 48h. LDH release was monitored following an incubation of 24h and 48h with different concentrations of Compound 1 (1, 10, 20, 50 and 100 µM). Percent viability was obtained by comparing with control cell viability, considered as 100%. Data represents the mean ± SD of measurements of three independent experiments. Results of the one-way ANOVA factorial analysis. […] Thus, compound 1 was indeed able to induce cytotoxicity without the need of external excitation sources.

[2] = system: HepG2 human liver cancer cell lines; assay: LDH release cytotoxicity assay; type: cell-based; settings: HepG2, 24h exposure, read-out: toxicity
Protocol: as §1

[3] = Singlet oxygen formation by quenching of ABDA fluorescence; settings: increasing concentrations of compound (0-15 microMolar); no external excitation; sodium azide prevented the quenching
Protocol: The production of reactive triplet states by compound 1 was determined by assessing the formation of singlet oxygen. This latter species is formed by energy transfer from a triplet molecule to oxygen. To this end, 9,10-anthracenediyl-bis(methylene)dimalonic acid (ABDA) was added to a solution containing compound 1, as the fluorescence of ABDA is quenched by the formation of singlet oxygen. […] To confirm that the quenching of ABDA's fluorescence was due to the production of singlet oxygen, sodium azide was added to solutions containing ABDA and compound 1. Sodium azide is a known quencher of singlet oxygen. As expected, the addition of sodium azide prevented the quenching of the fluorescence emitted by ABDA (Figure 12).

In the case of `Cc1nc2c(Br)[nH]c(-c3ccc(O)cc3)cn-2c1=O` [Compound 1, 8-bromo-6-(4-hydroxyphenyl)-2-methylimidazo[1,2-a]pyrazin-3(7H)-one], the cytotoxicity at 50 µM ([1]; 50 µM) is reported as 15%, the cytotoxicity at 100 µM ([1]; 100 µM) is reported as 12% and the cytotoxicity at 50 µM ([2]; 50 µM) is reported as 15%. For the same compound, the cytotoxicity at 100 µM ([2]; 100 µM) was 12% and the “fluorescence intensity of ABDA” value [3] was “decreased significantly”.
